US11142526B2, “Spirocycle compounds and methods of making and using same” (H. Lundbeck A/S, priority 2017, dated 2021)
Where two headings read alike, the source gives them in different places.

Assays:
MAGL [1] = target: T1, MAGL (Mus musculus (Mouse), UniProt O35678); assay: Mouse brain proteomes from inhibitor treated mice (oral gavage, brain MAGL activity 4 h after administration); type: in vivo; details: 5 mg/kg oral gavage
Description: Preparation of Mouse Brain Proteomes from Inhibitor Treated Mice.
Inhibitors were administered to wild-type C57B1/6J by oral gavage in a vehicle of polyethylene glycol.

MAGL [2] = target: T1, MAGL; assay: In vitro competitive activity-based protein profiling, mouse brain proteome; type: biochemical; details: for inhibition at 1 µM: mouse; for IC50: mouse brain
MAGL [3] = target: MAGL (Homo sapiens (Human), UniProt Q99685); assay: In vitro competitive activity-based protein profiling (gel-based, FP-Rh or HT-01 probe); type: biochemical; details: for IC50: read-out: MAGL Human PC3 (IC50)
Sequence of MAGL (Homo sapiens (Human), UniProt Q99685) (Q99685 whole entry): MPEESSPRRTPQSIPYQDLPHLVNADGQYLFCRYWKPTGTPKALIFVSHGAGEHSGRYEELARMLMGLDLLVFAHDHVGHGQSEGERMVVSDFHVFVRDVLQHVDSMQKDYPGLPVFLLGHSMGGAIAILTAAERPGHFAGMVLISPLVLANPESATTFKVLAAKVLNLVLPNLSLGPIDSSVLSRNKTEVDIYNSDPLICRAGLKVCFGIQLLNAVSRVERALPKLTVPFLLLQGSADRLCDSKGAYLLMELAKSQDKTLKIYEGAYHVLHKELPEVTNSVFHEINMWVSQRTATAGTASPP
Description: In Vitro Competitive Activity-Based Protein Profiling.
Proteomes (human prefrontal cortex or cell membrane fractions) (50 μL, 1.0 mg/mL total protein concentration) were preincubated with varying concentrations of inhibitors at 37° C. After 30 min, FP-Rh or HT-01 (1.0 μL, 50 μM in DMSO) was added and the mixture was incubated for another 30 min at room temperature. Reactions were quenched with SDS loading buffer (15 μL—4×) and run on SDS-PAGE.

[4] = human PC3, read-out: MAGL % Inhibition at 1 μM (human PC3)
[5] = human PFC (prefrontal cortex), read-out: MAGL % Inhibition at 1 μM (human PFC)

T1 sequence (O35678 whole entry): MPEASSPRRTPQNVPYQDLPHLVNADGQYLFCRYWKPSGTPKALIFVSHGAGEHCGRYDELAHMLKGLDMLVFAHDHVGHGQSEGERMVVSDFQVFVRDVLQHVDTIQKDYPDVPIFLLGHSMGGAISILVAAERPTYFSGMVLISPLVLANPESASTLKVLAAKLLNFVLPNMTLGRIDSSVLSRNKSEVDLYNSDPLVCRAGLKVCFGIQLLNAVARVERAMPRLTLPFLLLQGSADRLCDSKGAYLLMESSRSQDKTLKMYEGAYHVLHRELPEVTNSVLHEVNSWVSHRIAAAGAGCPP

Structure (SMILES)	MAGL % Inhibition at 5 mg/kg (Mouse) (MAGL [1])	inhibition at 1 µM (MAGL [2]) [%]	IC50 (MAGL [2]) [nM]	inhibition at 1 µM (MAGL [3]; [4]) [%]	inhibition at 1 µM (MAGL [3]; [5]) [%]	IC50 (MAGL [3]; human PC3) [nM]
O=C(OC(C(F)(F)F)C(F)(F)F)N1CCC2(CCCN2Cc2sc3ccccc3c2Cl)CC1 [Example 42, 1,1,1,3,3,3-Hexafluoropropan-2-yl 1-((3-chlorobenzo[b]thiophen-2-yl)methyl)-1,8-diazaspiro[4.5] decane-8-carboxylate]	### (% inhibition is greater than or equal to 75%)	> 75	< 100			
O=C(OC(C(F)(F)F)C(F)(F)F)N1CCC2(CCCN2C(=O)c2cc3cc(Cl)cc(Cl)c3[nH]2)CC1 [Example 16, 1,1,1,3,3,3-Hexafluoropropan-2-yl 1-(5,7-dichloro-1H-indole-2-carbonyl)-1,8-diazaspiro[4.5]decane-8-carboxylate]	### (% inhibition is greater than or equal to 75%)	> 75	< 100			
O=C(OC(C(F)(F)F)C(F)(F)F)N1CCC2(CCCN2Cc2cc3cc(C(F)(F)F)ccc3s2)CC1 [Example 41, 1,1,1,3,3,3-Hexafluoropropan-2-yl 1-((5-(trifluoromethyl)benzo[b]thiophen-2-yl)methyl)-1,8-diazaspiro[4.5] decane-8-carboxylate]	### (% inhibition is greater than or equal to 75%)	> 75	< 100			
CCc1cc(CN2CCC3(CCN(C(=O)OC(C(F)(F)F)C(F)(F)F)CC3)C2)n(C2CCOCC2)n1 [Example 7, 1,1,1,3,3,3-Hexafluoropropan-2-yl 2-((3-ethyl-1-(tetrahydro-2H-pyran-4-yl)-1H-pyrazol-5-yl)methyl)-2,8-diazaspiro[4.5]decane-8-carboxylate]	### (% inhibition is greater than or equal to 75%)	> 75	< 100			
CC(C)c1cc(CN2CCC3(CCN(C(=O)OC(C(F)(F)F)C(F)(F)F)CC3)C2)n(C2CCOCC2)n1 [Example 214, 1,1,1,3,3,3-Hexafluoropropan-2-yl 2-((3-isopropyl-1-(tetrahydro-2H-pyran-4-yl)-1H-pyrazol-5-yl)methyl)-2,8-diazaspiro[4.5]decane-8-carboxylate]	### (% inhibition is greater than or equal to 75%)	> 75	< 100			
CC(C)n1cc(CN2CCC3(CCN(C(=O)OC(C(F)(F)F)C(F)(F)F)CC3)C2)c(-c2cccc(Cl)c2)n1 [Example 218, 1,1,1,3,3,3-Hexafluoropropan-2-yl 2-((3-(3-chlorophenyl)-1-isopropyl-1H-pyrazol-4-yl)methyl)-2,8-diazaspiro[4.5]decane-8-carboxylate]	### (% inhibition is greater than or equal to 75%)	> 75	< 100			
O=C(OC(C(F)(F)F)C(F)(F)F)N1CCC2(CCN(Cc3cc4cc(Cl)ccc4s3)C2)CC1 [Example 51, 1,1,1,3,3,3-Hexafluoropropan-2-yl 2-((5-chlorobenzo[b]thiophen-2-yl)methyl)-2,8-diazaspiro[4.5] decane-8-carboxylate]	### (% inhibition is greater than or equal to 75%)	> 75	< 100			
Cc1c(C(=O)N2CCCC23CCN(C(=O)OC(C(F)(F)F)C(F)(F)F)CC3)[nH]c2ccc(Cl)cc12 [Example 109, 1,1,1,3,3,3-Hexafluoropropan-2-yl 1-(5-chloro-3-methyl-1H-indole-2-carbonyl)-1,8-diazaspiro[4.5] decane-8-carboxylate]	### (% inhibition is greater than or equal to 75%)	> 75	< 100			
O=C(OC(C(F)(F)F)C(F)(F)F)N1CCC2(CCCN2C(=O)c2ccc3occc3c2)CC1 [Example 77, 1,1,1,3,3,3-Hexafluoropropan-2-yl 1-(benzofuran-5-carbonyl)-1,8-diazaspiro[4.5] decane-8-carboxylate]	### (% inhibition is greater than or equal to 75%)	> 75	< 100			
CC(C)(C)c1cc(CN2CCC3(CCN(C(=O)OC(C(F)(F)F)C(F)(F)F)CC3)C2)n(C2CCOCC2)n1 [Example 213, 1,1,1,3,3,3-Hexafluoropropan-2-yl 2-((3-(t-butyl)-1-(tetrahydro-2H-pyran-4-yl)-1H-pyrazol-5-yl)methyl)-2,8-diazaspiro[4.5]decane-8-carboxylate]	### (% inhibition is greater than or equal to 75%)	> 75	< 100			
CCc1cc(CN2CCC3(CCN(C(=O)OC(C(F)(F)F)C(F)(F)F)CC3)C2)n(-c2ccccc2Cl)n1 [Example 215, 1,1,1,3,3,3-Hexafluoropropan-2-yl 2-((1-(2-chlorophenyl)-3-ethyl-1H-pyrazol-5-yl)methyl)-2,8-diazaspiro[4.5]decane-8-carboxylate]	### (% inhibition is greater than or equal to 75%)	> 75	< 100			
O=C(OC(C(F)(F)F)C(F)(F)F)N1CCC2(CCCN2Cc2cc3cc(F)ccc3[nH]2)CC1 [Example 52, 1,1,1,3,3,3-Hexafluoropropan-2-yl 1-((5-fluoro-1H-indol-2-yl)methyl)-1,8-diazaspiro[4.5] decane-8-carboxylate]	### (% inhibition is greater than or equal to 75%)	> 75	< 100			
COc1ccc(-c2cc(CN3CCCC34CCN(C(=O)OC(C(F)(F)F)C(F)(F)F)CC4)no2)cc1 [Example 46, 1,1,1,3,3,3-Hexafluoropropan-2-yl 1-((5-(4-methoxyphenyl)isoxazol-3-yl)methyl)-1,8-diazaspiro[4.5] decane-8-carboxylate]	## (% inhibition is less than 75% and greater than 25%)		< 100			
O=C(OC(C(F)(F)F)C(F)(F)F)N1CCC2(CCCN2C(=O)c2c(C3CC3)nc3cccnn23)CC1 [Example 3, 1,1,1,3,3,3-Hexafluoropropan-2-yl 1-(2-cyclopropylimidazo[1,2-b]pyridazine-3-carbonyl)-1,8-diazaspiro[4.5]decane-8-carboxylate]		> 75		> 75	> 75	
CC(C)n1cc(C(=O)N2CCCC23CCN(C(=O)OC(C(F)(F)F)C(F)(F)F)CC3)cn1 [Example 71, 1,1,1,3,3,3-Hexafluoropropan-2-yl 1-(1-isopropyl-1H-pyrazole-4-carbonyl)-1,8-diazaspiro[4.5] decane-8-carboxylate]		> 75	< 100			< 100
CC(C)N1CCn2cc(C(=O)N(C)C3(C)CCN(C(=O)OC(C(F)(F)F)C(F)(F)F)CC3)nc2C1 [Example 22, 1,1,1,3,3,3-Hexafluoropropan-2-yl 4-(7-isopropyl-N-methyl-5,6,7,8-tetrahydroimidazo[1,2-a]pyrazine-2-carboxamido)-4-methylpiperidine-1-carboxylate]		> 75		> 75	> 75	< 100
O=C(O)C1CCN(c2ncccc2CN2CCCC23CCN(C(=O)OC(C(F)(F)F)C(F)(F)F)CC3)CC1 [Example 124, 1-(3-((8-(((1,1,1,3,3,3-HexafIuoropropan-2-yl)oxy)carbonyl)-1,8-diazaspiro[4.5]decan-1-yl)methyl)pyridin-2-yl)piperidine-4-carboxylic acid]		> 75			25 to 75	
O=C(OC(C(F)(F)F)C(F)(F)F)N1CCC2(CCCN2Cc2cnc(N3CCNCC3)s2)CC1 [Example 4, 1,1,1,3,3,3-hexafluoropropan-2-yl 1-((2-(piperazin-1-yl)thiazol-5-yl)methyl)-1,8-diazaspiro[4.5]decane-8-carboxylate]		> 75			> 75	< 100
O=C(OC(C(F)(F)F)C(F)(F)F)N1CCC2(CCCN2C(=O)C2(c3nccc(C(F)(F)F)n3)CC2)CC1 [Example 202, 1,1,1,3,3,3-Hexafluoropropan-2-yl 1-(1-(4-(trifluoromethyl)pyrimidin-2-yl)cyclopropane-1-carbonyl)-1,8-diazaspiro [4.5]decane-8-carboxylate]		> 75		> 75	> 75	< 100
O=C(OC(C(F)(F)F)C(F)(F)F)N1CCC2(CCCN2C(=O)c2cn3cc(C(F)(F)F)cc(Cl)c3n2)CC1 [Example 116, 1,1,1,3,3,3-Hexafluoropropan-2-yl 1-(8-chloro-6-(trifluoromethyl)imidazo[1,2-a]pyridine-2-carbonyl)-1,8-diazaspiro[4.5] decane-8-carboxylate]		> 75			> 75	
O=C(OC(C(F)(F)F)C(F)(F)F)N1CCC2(CCCN2C(=O)C(F)(F)c2ncc(F)cn2)CC1 [Example 196, 1,1,1,3,3,3-Hexafluoropropan-2-yl 1-(2,2-difluoro-2-(5-fluoropyrimidin-2-yl)acetyl)-1,8-diazaspiro [4.5]decane-8-carboxylate]		> 75		> 75	> 75	
CN(C(=O)c1cn2c(n1)CN(C1CCC1)CC2)C1(C)CCN(C(=O)OC(C(F)(F)F)C(F)(F)F)CC1 [Example 23, 1,1,1,3,3,3-Hexafluoropropan-2-yl 4-(7-cyclobutyl-N-methyl-5,6,7,8-tetrahydroimidazo[1,2-a]pyrazine-2-carboxamido)-4-methylpiperidine-1-carboxylate]		> 75		> 75	> 75	< 100
